{
  "source": "patent US9572855B2",
  "about": "“Combination anti-estrogen receptor cancer therapy using MUC1 peptides and chemotherapeutics” (DANA-FARBER CANCER INSTITUTE, INC., priority 2013, dated 2017)",
  "key": {"MCF-7/MUC1-C cells [1]": {"system": "MCF-7/MUC1-C cells", "test": "Cell death by trypan blue staining", "type": "cell-based, human", "from_the_text": "(§1) (FIG. 2B) Control MCF-7/vector (diamonds) and MCF-7/MUC1-C (triangles) cells were left untreated."}, "MUC1-negative 293T cells": {"system": "MUC1-negative 293T cells", "test": "Cell death by trypan blue staining", "type": "cell-based, human", "conditions": "GO-203 each day for 4 days, day 4 (FIG. 8)", "from_the_text": "FIG. 8. 293T cells were left untreated or treated with GO-203 each day for 4 days."}, "MCF-7/MUC1-C cells [2]": {"system": "MCF-7/MUC1-C cells", "test": "Cell growth (viable cell number); Chou-Talalay drug combination", "type": "cell-based, human", "conditions": "5 μM tamoxifen on days 0, 2 and 4 (FIG. 2B)", "from_the_text": "Lysates were immunoblotted with the indicated antibodies. […] Lysates were immunoblotted with the indicated antibodies.\n(§2) (FIG. 6A) MCF-7/MUC1-C cells were infected with lentiviruses expressing the control shRNA (CshRNA) or the MUC1shRNA. Lysates from wild-type (WT) MCF-7 cells, MCF-7/MUC1-C/CshRNA and MCF-7/MUC1-C/MUC1shRNA cells were immunoblotted with the indicated antibodies. […] The results (mean±SD of three replicates) are expressed as viable cell number. […] The multiple effect-level isobologram analyses are shown for the ED50 (X), ED75 (+) and ED90 (⊙) values."}, "MCF-7/vector cells [3]": {"system": "MCF-7/vector cells", "test": "Colony formation assay", "type": "cell-based, human", "conditions": "5 μM tamoxifen every other day for 7 days (FIG. 2E, left)", "source_text": "(FIG. 2A) Lysates from wild-type (WT) MCF-7 cells, MCF-7/vector and MCF-7/MUC1-C cells were immunoblotted with the indicated antibodies. (FIG. 2B) Control MCF-7/vector (diamonds) and MCF-7/MUC1-C (triangles) cells were left untreated. […] Cell number is expressed as the mean±SD of three replicates. […] The results (mean±SD of three replicates) are expressed as the percentage of cell death as determined by trypan blue staining on the indicated days (left) or on day 4 (right). (FIG. 2D) MCF-7/vector and MCF-7/MUC1-C cells were seeded at 500 cells/well (6-well plate), grown for 7 days and then stained with crystal violet (left). Colony number (>30 cells) is expressed as the mean±SD of three replicates (right). […] Colony number (>30 cells) is expressed as the mean±SD of three replicates. Colony formation assays. Cells were seeded in 6-well plates for 24 h and then left untreated or treated with inhibitor. After 7-14 d, the cells were washed and stained with 0.5% crystal violet in 25% methanol. Colonies >30 cells were counted in triplicate wells."}, "BT-474/CshRNA cells [4]": {"system": "BT-474/CshRNA cells", "test": "Cell growth (viable cell number); Chou-Talalay drug combination", "type": "cell-based, human", "conditions": "BT-474 and BT-474/CshRNA cells; 5 μM tamoxifen on days 0 and 2; vs untreated (FIG. 1B)"}, "BT-474/MUC1shRNA cells [5]": {"system": "BT-474/MUC1shRNA cells", "conditions": "5 μM tamoxifen on days 0 and 2 (FIG. 1B)", "from_the_text": "(§3) The multiple effect-level isobologram analyses are shown for the ED50 (X), ED75 (+) and ED90 (⊙) values."}, "BT-474/MUC1shRNA cells [6]": {"system": "BT-474/MUC1shRNA cells", "test": "Cell death by trypan blue staining", "type": "cell-based, human", "conditions": "5 μM tamoxifen on days 0 and 2; compared to BT-474/CshRNA cells (FIG. 1C, left)", "source_text": "Cell number is expressed as the mean±SD of three replicates. […] The results (mean±SD of three replicates) are expressed as the percentage of cell death as determined by trypan blue staining on the indicated days (left) or on day 4 (right). […] Colony number (>30 cells) is expressed as the mean±SD of three replicates (right). […] Colony number (>30 cells) is expressed as the mean±SD of three replicates."}, "[7]": {"system": "MCF-7/MUC1-C/MUC1shRNA cells", "test": "Cell growth (viable cell number)", "type": "cell-based, human", "conditions": "5 μM tamoxifen days 0 and 2 (FIG. 6B)", "from_the_text": "as §2"}, "MCF-7/vector cells [8]": {"system": "MCF-7/vector cells", "test": "Cell growth (cell number); Chou-Talalay drug combination", "type": "cell-based, human", "conditions": "MCF-7 and MCF-7/vector cells; 5 μM tamoxifen on days 0, 2 and 4 (FIG. 2B)", "from_the_text": "as §3"}, "MCF-7/MUC1-C cells [9]": {"system": "MCF-7/MUC1-C cells", "test": "Colony formation assay", "type": "cell-based, human", "conditions": "5 μM tamoxifen every other day for 7 days (FIG. 2E, right)", "procedure": "as §1\n(§4) FIGS. 5A-G. Tamoxifen-resistant cells are sensitive to MUC1-C inhibition. […] Lysates were immunoblotted with the indicated antibodies. (FIG. 5B) BT-474/CshRNA cells were left untreated (diamonds) or treated with 5 μM GO-203 (squares) each day for the indicated days. […] Lysates were immunoblotted with the indicated antibodies. (FIG. 5E) MCF-7/MUC1-C cells were left untreated (diamonds) or treated with 5 μM GO-203 (squares) each day for the indicated days. […] Soluble chromatin was precipitated with anti-ERα (left), anti-CBP (right) or a control IgG. The precipitates were analyzed for Rab31 promoter sequences.\n(§5) Colony formation assays. Cells were seeded in 6-well plates for 24 h and then left untreated or treated with inhibitor. After 7-14 d, the cells were washed and stained with 0.5% crystal violet in 25% methanol. Colonies >30 cells were counted in triplicate wells."}, "BT-474/CshRNA cells [10]": {"system": "BT-474/CshRNA cells", "test": "Colony formation assay", "type": "cell-based, human", "conditions": "5 μM tamoxifen every other day for 14 days (FIG. 1E, left)", "procedure": "as §4, §5"}, "BT-474/MUC1shRNA cells [11]": {"system": "BT-474/MUC1shRNA cells", "test": "Colony formation assay", "type": "cell-based, human", "conditions": "5 μM tamoxifen every other day for 14 days (FIG. 1E, right)", "procedure": "as §5"}},
  "note": "Non-standard residues stand in square brackets, D forms with d. Residues, ends and D or L forms follow the SMILES beside them.",
  "data": [
    {"compound": "4-hydroxytamoxifen [OHTAM]", "values": [
      {"measurement": "loss of viability (percentage of cell death)", "setting": "MCF-7/MUC1-C cells [1]; 10 nM OHTAM on days 0 and 2, day 4, compared to MCF-7/vector cells (FIG. 2C, right)", "result": "less sensitive"}
    ]},
    {"compound": "N=C(N)NCCC[C@@H](N)C(=O)N[C@H](CCCNC(=N)N)C(=O)N[C@H](CCCNC(=N)N)C(=O)N[C@H](CCCNC(=N)N)C(=O)N[C@H](CCCNC(=N)N)C(=O)N[C@H](CCCNC(=N)N)C(=O)N[C@H](CCCNC(=N)N)C(=O)N[C@H](CCCNC(=N)N)C(=O)N[C@H](CCCNC(=N)N)C(=O)N[C@H](CS)C(=O)N[C@H](CCC(N)=O)C(=O)N[C@H](CS)C(=O)N[C@H](CCCNC(=N)N)C(=O)N[C@H](CCCNC(=N)N)C(=O)N[C@H](CCCCN)C(=O)N[C@H](CC(N)=O)C(=O)O", "note": "[GO-203, [R]9-CQCRRKN] (H-[dR][dR][dR][dR][dR][dR][dR][dR][dR][dC][dQ][dC][dR][dR][dK][dN]-OH)", "values": [
      {"measurement": "survival (percentage of cell death)", "setting": "MUC1-negative 293T cells", "result": "little if any effect"}
    ]},
    {"compound": "CC/C(=C(\\c1ccccc1)c1ccc(OCCN(C)C)cc1)c1ccccc1", "note": "[tamoxifen]", "values": [
      {"measurement": "proliferation (cell number)", "setting": "MCF-7/MUC1-C cells [2]", "result": "little effect"},
      {"measurement": "formation of colonies", "setting": "MCF-7/vector cells [3]", "result": "effective in decreasing"},
      {"measurement": "growth (cell number)", "setting": "BT-474/CshRNA cells [4]", "result": "unaffected"},
      {"measurement": "proliferation (cell number)", "setting": "BT-474/MUC1shRNA cells [5]", "result": "clearly inhibited"},
      {"measurement": "loss of viability (percentage of cell death)", "setting": "BT-474/MUC1shRNA cells [6]", "result": "marked loss of viability"},
      {"measurement": "loss of viability (percentage of cell death)", "setting": "MCF-7/MUC1-C cells [1]; 5 μM tamoxifen on days 0, 2 and 4, compared to MCF-7/vector cells (FIG. 2C, left)", "result": "less sensitive"},
      {"measurement": "sensitivity to tamoxifen treatment (viable cell number)", "setting": "[7]", "result": "regained sensitivity"},
      {"measurement": "growth (cell number)", "setting": "MCF-7/vector cells [8]", "result": "inhibited"},
      {"measurement": "clonogenic survival", "setting": "MCF-7/MUC1-C cells [9]", "result": "but not clonogenic survival"},
      {"measurement": "ability to form colonies", "setting": "BT-474/CshRNA cells [10]", "result": "little if any effect"},
      {"measurement": "colony formation", "setting": "BT-474/MUC1shRNA cells [11]", "result": "marked decrease"}
    ]}
  ]
}
